# Test results as given in patent EP0425443A1, “Injectable antiparasitic agent” (CIBA-GEIGY AG, priority 1989, dated 1991).
# Test: Solubility of the active substance in organic solvents
# Format: physicochemical
# Details: dmso and n-methylpyrrolidone, organic solvent or mixture; in Dimethylsulfoxid und N-Methylpyrrolidon; Gewicht-pro-Volumen-Prozent; read-out: Solubility (lösen)
# Text: Injizierbare Zubereitungen stellen wegen der sehr genauen Dosierbarkeit auch kleiner Wirkstoffmengen, der leichten Anwendbarkeit und der geringfügigen Beunruhigung der zu behandelnden Tiere, insbesondere grösserer Nutztiere, wie beispielsweise Rinder, Schafe, Pferde und Esel, oftmals die günstigste Applikationsart dar. Bei der Verwendung von schwerlöslichen Substanzen wie insbesondere den Benzoylphenylharnstoffen in Form injizierbarer Formulierungen ergeben sich jedoch Probleme, wenn mit ihnen ein wirksamer Plasmaspiegel, d.h., eine gleichmässige Verteilung einer ausreichenden Wirkstoffmenge im Plasma, erreicht werden soll, weil das injizierte Material von der Gewebsflüssigkeit beeinflusst wird und damit beispielsweise die physikalisch-chemischen Eigenschaften besagten Materials so verändert werden können, dass ein erheblicher Anteil des injizierten Materials sehr rasch kristallisiert und dadurch an der Injektionsstelle oder in sehr naher Umgebung davon verbleibt. So lassen sich Benzoylharnstoffe, beispielsweise N-[3-(3-Chlor-5-trifluormethylpyridyl-2-oxy)-4-chlorphenyl]-N'-[2,6-difluorbenzoyl]-hamstoff, in Dimethylsulfoxid und N-Methylpyrrolidon (etwa 35 %, Prozentangaben bedeuten hier und im folgenden Gewichtpro-Volumen-Prozent) lösen. […]
compound,measurement,value
"O=C(NC(=O)c1c(F)cccc1F)Nc1ccc(Cl)c(Oc2ncc(C(F)(F)F)cc2Cl)c1 [N-[3-(3-Chlor-5-trifluormethylpyridyl-2-oxy)-4-chlorphenyl]-N'-[2,6-difluorbenzoyl]-harnstoff]",solubility,~350 mg/mL
